From a melting point compilation (Tetko et al.; mined from patent text by program, amines drawn as free bases though some values may be those of a salt) come the findings set out here.

Bounds are passed on as bounds.

In the case of `c1nc2c(cc1NC1=NCCN1)CCCC2`, the melting point fell in the range of 201 to 203 °C. Compound `COC(=O)c1ccc2ccc3ccccc3c2c1C(=O)OC` gave a melting point of 117 °C. For `Cn1c(N=C=O)c(-c2ccccc2)c2cc(Cl)ccc21`, the melting point was 150 °C.

Consider `CCCCCC(=O)n1nc(-c2cc(C(C)(C)C)c(O)c(C(C)(C)C)c2)c2cccnc21`, for which the melting point lay within 112 to 114 °C.

As for `COc1ccc2c(c1)S(=O)(=O)C(C(=O)Nc1cccc(C(F)(F)F)c1)C(=O)N2C` (stereo not given), the melting point lay within 165 to 168 °C.

`COc1ccc2c(C(=O)c3ccc(OC4CCCCC4N(C)C)cc3)c(-c3ccc(OCCN4CCCC4)cc3)sc2c1` (stereo not given) had a melting point of 61 to 64 °C. With `Cn1cc(C(=O)O)c(=O)c2oc3ccc(Cl)cc3c(=O)c21` the figure was 295 to 297 °C. The compound `COc1ccc(N2CCN(c3ccc(F)cc3)C(=O)C2)c(-c2ccc(N(C)C)cc2)n1` showed a melting point of 158 to 164 °C. To `CC1NC(=O)NN=C1c1ccccc1` (stereo not given) belongs 214 °C; to `O=C(O)C1(c2ccsc2)CC1`, 132 to 133 °C; to `CN1CCN(C(=O)c2ccc(N)cc2N)CC1`, 192 °C. As for `COc1cccc2c1CC(N(CCCc1c[nH]c3ccc(F)cc13)C1CC1)CO2` (stereo not given), the melting point worked out at 115 °C.

The compound `Oc1cccc(-n2cnc3cc(C(F)(F)F)ccc32)c1` came in with a melting point of 168 to 170 °C.

In turn, `Fc1cc(F)c(-c2c(Cl)nc3nccn3c2NCC(F)(F)F)c(F)c1` returned a melting point of 155 to 157 °C. To `CC1=C(Cc2ccc(C(=O)O)cc2)C(=O)C2C=CC=CC2C1=O` (stereo not given) belongs 206 to 208 °C. For `O=C(CC(c1ccc(OC(F)F)c(OCC2CC2)c1)N1C(=O)c2ccccc2C1=O)NO` (stereo not given), the melting point is 129 to 131 °C. With `O=C1NC(=O)[C@@]2(C[C@@H](C(=O)NCCO[N+](=O)[O-])Oc3ccc(F)cc32)N1` the figure was 266 to 271 °C; with `COc1ccnc(CCc2nc3ccc(OC)nc3[nH]2)c1`, 93 to 95 °C. Turning to `CC(=O)Nc1ccc(C(=O)NC2CCN(C3CCCCC3)C2)cc1` (stereo not given), the melting point is 184 to 186 °C.

`Cc1ccc(-c2ccc(C)c(C(N)=O)c2N)cc1` registered a melting point of 250 °C. With `O=C(CCc1cccc2[nH]ccc12)c1ccccc1OCCN1CCCCC1` the figure was 78 °C; with `NCC(=O)N1Cc2ccccc2Oc2ccc(Cl)cc21`, 108 to 109 °C; with `O=C1N[C@H](Cc2ccc(C(F)(F)F)cc2)[C@H](c2ccccc2)O1` (racemic), 158 to 159 °C.

For the compound `O=C(CN1CCC(Cc2ccc(F)cc2)CC1)Nc1ccc([N+](=O)[O-])cc1`, the melting point is 120 to 123 °C. To `NC1=Nc2ccccc2Cn2cccc21` belongs 179 to 181 °C; to `CC(C)(C(N)=O)c1ccc(Cl)cc1`, 125 °C. The compound `CCCOc1ccccc1C(=O)Nc1sccc1C(N)=O` gave a melting point of 176 to 178 °C. With `O=C(NC(Cc1ccccc1)C(=O)C(F)(F)F)c1ccccc1` (racemic) the figure was 148 to 157 °C; with `O=C1CCC(NC(=O)OC(=O)c2ccccc2)(C(=O)OCc2ccc([N+](=O)[O-])cc2)O1` (stereo not given), 127 to 128 °C; with `CCOC(=O)C1=C(C)NC(C)=C(C(=O)OCCN2CCN(C(c3ccc(C)cc3)c3ccc(C)cc3)CC2)C1c1cccc(OC)c1` (stereo not given), 75 to 78 °C. To `N#CNC(=N)NCCCN1CCC(c2noc3cc(F)ccc23)CC1` belongs 178 to 181 °C; to `COC(=O)c1cccc(COc2ccc(S(=O)(=O)c3ccc(C)nc3Nc3c(C)cc(C)cc3C)cc2)c1`, 148 to 150 °C; to `N#Cc1ccc(-c2cnc3c(c2)N(Cc2ccccc2)C(=O)CN3)cn1`, above 200 °C. With `CC(NC(=O)OCc1ccccc1)P(C)(=O)O` (stereo not given) the figure was 118 to 119 °C; with `CC(=O)CC(=O)Nc1cccc(OC(C)=O)c1`, 101 °C.

One may read the melting point as the temperature of the solid-liquid transition.
